# Laboratory results from ChEMBL document CHEMBL1158294, “Antiplatelet arylnaphthalide lignans from Justicia procumbens” (J Nat Prod, 1996).
# pIC50: −log10 of the molar value.
# Test system: Platelet
# Assay: Inhibition of arachidonic acid-induced platelet aggregation in rabbit […] by turbidimetric method
# Format: functional, cell-based
# Details: Oryctolagus cuniculus
row,Structure (SMILES),pIC50
1,CC(=O)Oc1ccccc1C(=O)O [ASPIRIN],4.69
2,COc1ccc(-c2c3c(c(OC)c4cc5c(cc24)OCO5)COC3=O)cc1OC [CHINENSINAPHTHOL METHYL ETHER],4.73
3,COc1cc2c(O)c3c(c(-c4ccc5c(c4)OCO5)c2cc1OC)C(=O)OC3 [DIPHYLLIN],< 4.00
4,COc1ccc2c(c1)c(CC(=O)O)c(C)n2C(=O)c1ccc(Cl)cc1 [INDOMETHACIN],6.68
5,COc1cc2c(OC)c3c(c(-c4ccc5c(c4)OCO5)c2cc1OC)C(=O)OC3 [JUSTICIDIN A],4.50
6,COc1c2c(c(-c3ccc4c(c3)OCO4)c3cc4c(cc13)OCO4)COC2=O [NEOJUSTICIN A],5.96
7,COc1cc2c(OC)c3c(c(-c4ccc5c(c4)OCO5)c2cc1OC)COC3=O [NEOJUSTICIN B],4.29
8,COc1c2c(c(-c3ccc4c(c3)OCO4)c3cc4c(cc13)OCO4)C(=O)OC2 [TAIWANIN E METHYL ETHER],5.77
9,O=C1OCc2c1c(-c1ccc3c(c1)OCO3)c1cc3c(cc1c2O)OCO3 [TAIWANIN E],5.10
